Like-named read-outs stand apart in the source and are kept apart here.
Assays:
in vitro = conditions: PAMPA
Description: Supporting Information Table 1.
artificial membrane permeability assay (PAMPA) as described previously (reference). The apparent permeability
(ranitidine, nadolol, hydrochlorothiazide).
Data are mean ± S.D. (n=3).
Reference: Oh, M.H., Lee, H.J., Jo, S.H., et al. Development of Cassette PAMPA for Permeability Screening. Biol Pharm

recombinant human IP6K2 = target: T1, recombinant human IP6K2 (Homo sapiens, UniProt Q9UHH9); experiment: ADP-Glo kinase assay, IP6K2; assay type: biochemical; conditions: for IP6K2-inhibitory activity in screening: at concentrations of 10 and 50 µM, result in words; for IC50: IP6K2 80 nM, IP6 10 μM, ATP 10 μM, read-out: IP6K2 IC50; for inhibitory activity against IP6K2 (in words): IC50 experiment up to 100 µM
T1 construct: made in house; host or cells: Sf9 insect cells (baculovirus, pFASTBAC1)
T1 sequence (Q9UHH9 1-426): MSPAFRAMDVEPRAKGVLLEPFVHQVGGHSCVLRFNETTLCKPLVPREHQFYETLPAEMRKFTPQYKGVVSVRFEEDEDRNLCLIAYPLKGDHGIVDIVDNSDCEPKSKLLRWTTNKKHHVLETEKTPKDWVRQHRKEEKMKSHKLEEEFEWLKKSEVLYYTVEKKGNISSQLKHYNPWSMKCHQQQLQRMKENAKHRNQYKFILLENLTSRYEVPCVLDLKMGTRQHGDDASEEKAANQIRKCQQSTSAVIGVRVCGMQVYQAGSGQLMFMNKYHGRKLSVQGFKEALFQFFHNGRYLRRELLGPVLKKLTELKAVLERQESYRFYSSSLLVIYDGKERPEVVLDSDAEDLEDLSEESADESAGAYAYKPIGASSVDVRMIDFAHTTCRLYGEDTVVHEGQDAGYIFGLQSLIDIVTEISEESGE
Procedure: Inhibition activity of the synthesised compounds against IP6K2 was assessed using ADP-Glo™ Kinase Assay (Promega). Kinase reaction mixtures were first shaking-incubated with individual drugs (diluted in DMSO) for pre-incubation at RT for 15 min, and then ATP was added (final 10 µM) to initiate the reaction. 20 ng of recombinant human IP6K2 protein was used per 15 µL of IP6K2 reaction mixture (50 mM Tris-HCl, pH 6.8, 10 mM MgCl2, 2.5 mM DTT, 0.02% Triton X-100, 10 µM IP6). […] Each detection set was prepared on 96-well (25 µL kinase reaction) as duplicates. Resulting enzyme activity was calculated as following; Activity (%) = ([ADPexperimental]/[ADPDMSO])×100. For IC50 estimation of compounds, kinase assay was prepared on 384-well plates (20 ng of recombinant human IP6K2 protein was used per 5 µL kinase reaction mixture) as duplicates. The final concentrations for IP6K2, IP6, and ATP were 80 nM, 10 μM, and 10 μM, respectively. […] IP6K1 and IP6K3 assays were performed by Liao et al.’s conditions.[25] The final concentrations for IP6K1, IP6, and ATP were 60 nM, 100 μM, and 1 mM, respectively. […] All statistical analyses including IC50 estimation was performed using Prism 7 or Prism 9 (Graphpad Software).
Full-length human IP6K1, IP6K2, or IP6K3 cDNA was subcloned into pFASTBAC1 plasmid (Gibco) with an N-terminal FLAG epitope sequence, and baculovirus was generated according to the manufacturer’s instructions. Sf9 insect cells were infected with baculovirus and incubated for 72 h. The cells were resuspended in lysis buffer [20 mM Tris–HCl (pH 7.9), 500 mM NaCl, 4 mM MgCl2, 0.4 mM EDTA, 2 mM DTT, 20% glycerol, 1 mM PMSF, and protease inhibitor cocktail (Roche)] and then disrupted with a Dounce homogeniser (pestle A, 3 series of 10 strokes with 10 min interval).

[1] = Table 2, duplicates, 0.017 to 100 µM, mean ± SD

Row | melting point [°C] | Compound | IC50 (recombinant human IP6K2; [1]) [µM] | also measured
1 | 310 to 312 | O=c1cc(-c2ccc(O)cc2)oc2cc(F)ccc12 |  | 
2 | 292 to 294 | O=c1cc(-c2ccc(O)cc2)oc2ccc(F)cc12 |  | 
3 | 272 to 274 | O=c1cc(-c2ccc(O)cc2)oc2cccc(F)c12 |  | 
4 | 302 to 304 | O=c1cc(-c2ccc(O)cc2)oc2cc(F)c(F)cc12 |  | 
5 | 272 to 274 | O=C(O)c1cccc(-c2cc(=O)c3cc(F)c(F)cc3o2)c1 |  | 
6 | 228 to 230 | O=c1cc(-c2ccc(O)cc2)oc2cc(F)cc(F)c12 |  | 
7 | 96 to 98 | O=c1cc(-c2ccccc2)oc2cc(F)ccc12 |  | 
8 | 228 to 230 | COc1ccc(-c2cc(=O)c3ccc(F)cc3o2)cc1 |  | 
9 | 160 to 162 | COc1ccc(-c2cc(=O)c3cc(F)ccc3o2)cc1 |  | 
10 | 144 to 146 | O=c1cc(-c2ccccc2)oc2cccc(F)c12 |  | 
11 | 178 to 180 | COc1ccc(-c2cc(=O)c3c(F)cccc3o2)cc1 |  | 
12 | 200 to 202 | COc1ccc(-c2cc(=O)c3cc(F)c(F)cc3o2)cc1 |  | 
13 | 256 to 258 | COc1ccc(-c2cc(=O)c3c(F)cc(F)cc3o2)cc1 |  | 
14 |  | O=C(N[C@H](CO)[C@H](O)c1ccc([N+](=O)[O-])cc1)C(Cl)Cl [Chloramphenicol, chloramphenicol] |  | Papp (in vitro): 4.67 ± 0.063 ×10⁻⁶ cm/s; Permeability class (in vitro): High
15 |  | O=c1cc(-c2ccccc2)oc2cc(O)c(O)cc12 [Compound 2a] |  | IP6K2-inhibitory activity in screening (recombinant human IP6K2): inhibit IP6K2 more strongly than the corresponding compounds
16 |  | O=c1cc(-c2ccc(O)cc2)oc2cc(O)c(O)cc12 [Compound 2c] |  | IP6K2-inhibitory activity in screening (recombinant human IP6K2): inhibit IP6K2 more strongly than the corresponding compounds
17 |  | O=c1cc(-c2cccnc2)oc2cc(O)c(O)cc12 [Compound 2e] |  | IP6K2-inhibitory activity in screening (recombinant human IP6K2): inhibit IP6K2 more strongly than the corresponding compounds
18 |  | O=C(O)c1ccc(-c2cc(=O)c3cc(O)c(O)cc3o2)cc1 [Compound 16a, 4–(6,7-Dihydroxy-4-oxo-4H-chromen-2-yl)benzoic acid] |  | IC50 (recombinant human IP6K2; Table 1): 9.07 µM
19 |  | O=C(O)c1cccc(-c2cc(=O)c3c(O)cc(O)cc3o2)c1 [Compound 16d, 3–(5,7-Dihydroxy-4-oxo-4H-chromen-2-yl)benzoic acid] |  | IC50 (recombinant human IP6K2; Table 1): 2.89 µM
20 |  | O=c1c(O)c(-c2ccc(O)c(O)c2)oc2cc(O)c(O)cc12 [Compound 20a, 2–(3,4-Dihydroxyphenyl)-3,6,7-trihydroxy-4H-chromen-4-one] | 1.77 ± 0.15 | 
21 |  | O=c1c(O)c(-c2ccccc2)oc2cc(O)c(O)cc12 [Compound 20b, 3,6,7-Trihydroxy-2-phenyl-4H-chromen-4-one] | 14.5 ± 0.9 | 
22 |  | Cc1ccc(-c2oc3cc(O)c(O)cc3c(=O)c2O)cc1 [Compound 20c, 3,6,7-Trihydroxy-2-(p-tolyl)-4H-chromen-4-one] | > 100 | 

Row | melting point [°C] | Compound | IC50 (recombinant human IP6K2; [1]) [µM] | also measured
23 |  | Cc1cccc(-c2oc3cc(O)c(O)cc3c(=O)c2O)c1 [Compound 20d, 3,6,7-Trihydroxy-2-(m-tolyl)-4H-chromen-4-one] | 38.8 ± 3.8 | 
24 |  | Cc1ccc(-c2oc3cc(O)c(O)cc3c(=O)c2O)cc1C [Compound 20e, 2–(3,4-Dimethylphenyl)-3,6,7-trihydroxy-4H-chromen-4-one] | > 100 | inhibitory activity against IP6K2 (in words) (recombinant human IP6K2): completely lost their inhibitory activity against IP6K2
25 |  | O=c1c(O)c(-c2ccc(F)cc2)oc2cc(O)c(O)cc12 [Compound 20f, 2–(4-Fluorophenyl)-3,6,7-trihydroxy-4H-chromen-4-one] | 61.9 ± 3.8 | 
26 |  | O=c1c(O)c(-c2cccc(F)c2)oc2cc(O)c(O)cc12 [Compound 20g, 2–(3-Fluorophenyl)-3,6,7-trihydroxy-4H-chromen-4-one] | 38.7 ± 2.9 | 
27 |  | O=c1c(O)c(-c2ccc(F)c(F)c2)oc2cc(O)c(O)cc12 [Compound 20h, 2–(3,4-Difluorophenyl)-3,6,7-trihydroxy-4H-chromen-4-one] | > 100 | inhibitory activity against IP6K2 (in words) (recombinant human IP6K2): completely lost their inhibitory activity against IP6K2
28 |  | O=c1c(O)c(-c2ccc(C(F)(F)F)cc2)oc2cc(O)c(O)cc12 [Compound 20i, 3,6,7-Trihydroxy-2–(4-(trifluoromethyl)phenyl)-4H-chromen-4-one] | > 100 | 
29 |  | O=c1c(O)c(-c2cccc(C(F)(F)F)c2)oc2cc(O)c(O)cc12 [Compound 20j, 3,6,7-Trihydroxy-2–(3-(trifluoromethyl)phenyl)-4H-chromen-4-one] | > 100 | 
30 |  | O=c1c(O)c(-c2ccc(Cl)cc2)oc2cc(O)c(O)cc12 [Compound 20k, 2–(4-Chlorophenyl)-3,6,7-trihydroxy-4H-chromen-4-one] | 81.5 ± 3.3 | 
31 |  | O=c1c(O)c(-c2cccc(Cl)c2)oc2cc(O)c(O)cc12 [Compound 20l, 2–(3-Chlorophenyl)-3,6,7-trihydroxy-4H-chromen-4-one] | 73.2 ± 3.2 | 
32 |  | O=c1c(O)c(-c2ccc(-c3ccccc3)cc2)oc2cc(O)c(O)cc12 [Compound 20m, 2-([1,1'-Biphenyl]-4-yl)-3,6,7-trihydroxy-4H-chromen-4-one] | > 100 | 
33 |  | O=c1c(O)c(-c2ccc(Oc3ccccc3)cc2)oc2cc(O)c(O)cc12 [Compound 20n, 3,6,7-Trihydroxy-2–(4-phenoxyphenyl)-4H-chromen-4-one] | > 100 | 
34 |  | O=c1c(O)c(-c2cccc(Oc3ccccc3)c2)oc2cc(O)c(O)cc12 [Compound 20o, 3,6,7-Trihydroxy-2–(3-phenoxyphenyl)-4H-chromen-4-one] | 73.3 ± 12.7 | 
35 |  | O=c1c(O)c(-c2ccc(O)cc2)oc2cc(O)c(O)cc12 [Compound 20p, 3,6,7-Trihydroxy-2–(4-hydroxyphenyl)-4H-chromen-4-one] | 22.6 ± 0.3 | 
36 |  | O=c1c(O)c(-c2cccc(O)c2)oc2cc(O)c(O)cc12 [Compound 20q, 3,6,7-Trihydroxy-2–(3-hydroxyphenyl)-4H-chromen-4-one] | 2.96 ± 0.19 | 
37 |  | O=C(O)c1ccc(-c2oc3cc(O)c(O)cc3c(=O)c2O)cc1 [Compound 20r, 4–(3,6,7-Trihydroxy-4-oxo-4H-chromen-2-yl)benzoic acid] | 3.93 ± 0.03 | 
38 |  | O=c1c(O)c(-c2ccc3ccccc3c2)oc2cc(O)c(O)cc12 [Compound 23a, 3,6,7-Trihydroxy-2-(naphthalen-2-yl)-4H-chromen-4-one] | 97.8 ± 1.7 | 
39 |  | Cn1cc(-c2oc3cc(O)c(O)cc3c(=O)c2O)cn1 [Compound 23b, 3,6,7-Trihydroxy-2–(1-methyl-1H-pyrazol-4-yl)-4H-chromen-4-one] | 1.79 ± 0.4 | fold more potent IP6K2 inhibition than quercetin (recombinant human IP6K2; IC50 compared with quercetin): 2 fold
40 |  | O=c1c(O)c(-c2cccs2)oc2cc(O)c(O)cc12 [Compound 23c, 3,6,7-Trihydroxy-2-(thiophen-2-yl)-4H-chromen-4-one] | 73.3 ± 12.8 | 
41 |  | NS(=O)(=O)c1cc2c(cc1Cl)NCNS2(=O)=O [Hydrochlorothiazide, hydrochlorothiazide] |  | Papp (in vitro): < 0.18 ×10⁻⁶ cm/s; Permeability class (in vitro): Low
42 |  | COCCc1ccc(OCC(O)CNC(C)C)cc1 (centres unmarked) [Metoprolol, metoprolol] |  | Papp (in vitro): 3.45 ± 0.158 ×10⁻⁶ cm/s; Permeability class (in vitro): High
43 |  | CC(C)(C)NCC(O)COc1cccc2c1CC(O)C(O)C2 (centres unmarked) [Nadolol, nadolol] |  | Papp (in vitro): 0.089 ± 0.007 ×10⁻⁶ cm/s; Permeability class (in vitro): Low
44 |  | CNC(=C[N+](=O)[O-])NCCSCc1ccc(CN(C)C)o1 [Ranitidine, ranitidine] |  | Papp (in vitro): < 0.18 ×10⁻⁶ cm/s; Permeability class (in vitro): Low

Row | Compound | melting point [°C] | IC50 (recombinant human IP6K2; [1]) [µM] | also measured
45 | O=C(O)c1cccc(-c2cc(=O)c3cc(O)c(O)cc3o2)c1 [Compound 16b, 3–(6,7-Dihydroxy-4-oxo-4H-chromen-2-yl)benzoic acid] | 416 to 418 |  | IC50 (recombinant human IP6K2; Table 1): 1.67 µM
46 | O=C(O)c1ccc(-c2cc(=O)c3c(O)cc(O)cc3o2)cc1 [Compound 16c, 4–(5,7-Dihydroxy-4-oxo-4H-chromen-2-yl)benzoic acid] | 337 to 339 |  | IC50 (recombinant human IP6K2; Table 1): 41.9 µM

— paper PMC10075506, “Synthesis and biological evaluation of flavonoid-based IP6K2 inhibitors” (Journal of Enzyme Inhibition and Medicinal Chemistry, 2023)
